{"source": "patent US20260130885A1", "about": "“ANTIMICROBIAL COMPOSITIONS, PHARMACEUTICAL COMPOSITIONS AND USE THEREOF” (priority 2022, published 2026)", "key": {"MRSA USA300": {"test_system": "MRSA USA300", "assay": "Time-kill kinetics (cfu assay)", "type": "cell-based, Staphylococcus aureus", "settings": "SC5005 4×MIC, 1 mg/L; FIG. 1", "method": "(§1) The number of viable bacteria in broth after each exposure period was enumerated by a cfu assay and expressed as cfu/mL; the data shown are the mean±SD (standard deviation) of independent experiments. […] The number of viable bacteria in the broth after each exposure period was calculated by a cfu assay (cfu/mL); the data are shown as the mean±SD of three independent experiments (n=3 for each group). Since the standard deviation of each point is very small, the error line is not shown in each graph. The horizontal dashed line in the upper left graph and the upper right graph represents […] of the bacterial cells killed. In addition, the blank controls in FIG. 1 are shown as filled diamonds.\n(§2) In this experiment, the inventor analyzed the time-kill kinetics of SC5005, DHA, and a combination thereof against Staphylococcus aureus NCTC8325 and MRSA USA300, and the results are shown in FIG. 1. It can be seen in FIG. 1 that SC5005 killed more than 99.9% of the bacteria within 24 hours. […] Besides, it is well known in the art that Staphylococcus aureus can enter a dormant state (i.e., become the so-called persister cells) and develop resistance to antibiotic treatment, thus leading to repeated bacterial infections."}, "VRSA SJC1200": {"test_system": "VRSA SJC1200", "assay": "Antibacterial activity assay (MIC, broth microdilution)", "type": "cell-based, Staphylococcus aureus", "settings": "for MIC: Staphylococcus aureus, VRSA"}, "[1]": {"test_system": "Staphylococcus aureus NCTC8325", "assay": "Time-kill kinetics (cfu assay)", "type": "cell-based", "settings": "SC5005 4×MIC, 1 mg/L; FIG. 1", "method": "as §1, §2"}, "MRSA SCCmec VT": {"test_system": "MRSA SCCmec VT", "assay": "Antibacterial activity assay (MIC, broth microdilution)", "type": "cell-based, Staphylococcus aureus", "settings": "for MIC: Staphylococcus aureus, MRSA"}, "MRSA ATCC43300": {"test_system": "MRSA ATCC43300", "assay": "Antibacterial activity assay (MIC, broth microdilution)", "type": "cell-based, Staphylococcus aureus", "settings": "for MIC: Staphylococcus aureus"}, "[2]": {"assay": "Antiproliferation assay (MTT)", "type": "cell-based, murine", "settings": "mouse, RAW264.7 macrophage cells, read-out: CC50 of SC5005", "method": "FIG. 2: The biofilms of S. aureus NCTC8325 (the upper left graph) and MRSA USA300 (the upper right graph) were treated with increasing concentrations of blank control (Mock), DHA, daptomycin (DAP), vancomycin (VAN), SC5005, and SC5005 in combination with DHA for 24 hours. The number of viable bacteria was then determined using a cfu assay. The data represent individual experiments and are shown as the mean±SD (n=3 per group). ns, nonsignificant, p>0.05; *p<0.05; **p<0.01; ***p<0.001. (The lower left graph) the biofilms of MRSA USA300 were treated with blank control (Mock) or SC5005 along with 80 mg/L DHA for 1, 3 or 10 minute(s). The viable bacteria in the biofilms harvested and enumerated using a cfu assay. The data represent independent experiments and are shown as mean±SD (n=3 per group). ns, nonsignificant, p>0.05; *p<0.05; **p<0.01; ***p<0.001 (The lower right graph) RAW264.7 cells were exposed to a blank control (Mock) or increasing concentrations of SC5005 and 80 mg/L DHA for […]. The viability of cells was determined by the MTT assay and expressed as a percentage relative to mock (DMSO and ethanol)-treated cells. The data shown are the mean±SD (n=3 per group).\nThe murine macrophage cell line RAW264.7 (BCRC) and human cervical epithelioid carcinoma cell line HeLa (BCRC) were maintained in Dulbecco's modified Eagle's medium (DMEM; Gibco-BRL) supplemented with 10% heat-inactivated FBS (Gibco-BRL). The human embryonic kidney cell line HEK-293 (BCRC) and the immortalized nontumorigenic keratinocyte cell line HaCaT (obtained from Dr. Yung-Chiy Chang, National Taiwan University, Taiwan) were maintained in Roswell Park Memorial Institute (RPMI; Gibco-BRL) medium supplemented with 10% heat-inactivated FBS. Cells were cultured in T-75 flasks at 37° C. in a 5% CO2 atmosphere.\nThe effects of SC5005 and DHA on the viability of mammalian cells were assessed using a 3-(4,5-dimethylthiazol-2-yl)-2,5-diphenyl-2H-tetrazolium bromide (MTT) assay in six replicates per treatment group. Briefly, cells were seeded into 96-well, flat-bottomed plates at 10^4 cells/well, cultured for 24 hours, and then exposed to SC5005 at concentrations ranging from 5-30 mg/L or the combination of SC5005 with designated concentrations of DHA for 24 hours. Controls were treated with DMSO and ethanol vehicles at concentrations equal to those for drug-treated cells. At the end of treatments, the medium was replaced with 0.5 g/L MTT-containing culture medium, and the cells were incubated in a CO2 incubator at 37° C. for an additional 1.5 hours. Supernatants were removed from the wells, and the reduced MTT dye was solubilized in DMSO followed by measuring the absorbance at 570 nm of each well using a VersaMax microplate reader (Molecular Devices, USA)."}, "S. aureus ATCC29213": {"test_system": "S. aureus ATCC29213", "assay": "Antibacterial activity assay (MIC, broth microdilution)", "type": "cell-based, Staphylococcus aureus", "settings": "for MIC: Staphylococcus aureus"}, "[3]": {"test_system": "antibiotic-resistant Staphylococcus aureus", "assay": "MIC against all strains of Table 4", "type": "cell-based", "settings": "agent alone, all the bacterial strains under the examination", "method": "The antimicrobial activity was based on MIC and MBC; MIC is the minimum inhibitory concentration and MBC is the minimum bactericidal concentration. The MIC of individual test agents against MRSA USA300 strains was determined using the broth microdilution method according to CLSI guidelines. Briefly, overnight bacterial cultures in LB medium were diluted 1:50 in fresh LB medium and incubated at 37° C. until reaching an OD600 of 0.5 to 0.6. Bacterial suspensions were diluted to a final concentration of 5×10^5 cfu/mL in fresh CAMHB and then exposed to each test agent at increasing doses in triplicate in 96-well plates for 24 hours at 37° C. The MIC of each agent was defined as the lowest concentration without visible bacterial growth. […] The lowest broth dilution that had no viable bacteria was considered the MBC.\nThen, the combination effect was measured by calculating their corresponding fractional inhibitory concentration index (FICI) with the equation ΣFIC (FICi)=FICA+FICB=(CombA/MICA)+(CombB/MICB), where MICA and MICB are the MICs of drugs A and B alone, respectively, and CombA and CombB are the concentrations of drugs A and B in combination, respectively. […]\nThe antibacterial activity of the SC5005-DHA composition against a series of antibiotic-resistant Staphylococcus aureus was analyzed, and the results are shown in Table 4."}}, "note": "Where two headings read alike, the source gives them in different places.", "data": [{"compound": "O=C(Nc1ccc(Cl)c(C(F)(F)F)c1)C(CCCl)C(=O)Nc1ccc(Cl)c(C(F)(F)F)c1", "note": "[SC5005]", "values": [{"measurement": "bacteria killed within 24 hours", "setting": "MRSA USA300", "value": "more than 99.9%"}, {"measurement": "combination effect", "setting": "VRSA SJC1200; MIC, +8 mg/L DHA", "value": "(Syn) (Synergy (Syn) was defined as an FICI≤0.5)"}, {"measurement": "MIC", "setting": "VRSA SJC1200; +8 mg/L DHA", "value": 0.0019, "unit": "ng/mL"}, {"measurement": "MIC", "setting": "VRSA SJC1200; agent alone", "value": 250, "unit": "ng/mL"}, {"measurement": "bacteria killed within 24 hours", "setting": "[1]", "value": "more than 99.9%"}, {"measurement": "combination effect", "setting": "MRSA SCCmec VT; MIC, +8 mg/L DHA", "value": "(Syn) (Synergy (Syn) was defined as an FICI≤0.5)"}, {"measurement": "MIC", "setting": "MRSA SCCmec VT; +8 mg/L DHA", "value": 0.0019, "unit": "ng/mL"}, {"measurement": "MIC", "setting": "MRSA SCCmec VT; agent alone", "value": 250, "unit": "ng/mL"}, {"measurement": "combination effect", "setting": "MRSA ATCC43300; MIC, +8 mg/L DHA", "value": "(Syn) (Synergy (Syn) was defined as an FICI≤0.5)"}, {"measurement": "MIC", "setting": "MRSA ATCC43300; +8 mg/L DHA", "value": 0.24, "unit": "ng/mL"}, {"measurement": "MIC", "setting": "MRSA ATCC43300; agent alone", "value": 250, "unit": "ng/mL"}, {"measurement": "CC50 at 24 h", "setting": "[2]; DHA 0 mg/L", "value": "19500 ± 600", "unit": "ng/mL"}, {"measurement": "CC50 at 24 h", "setting": "[2]; DHA 4 mg/L", "value": "22600 ± 800", "unit": "ng/mL"}, {"measurement": "CC50 at 24 h", "setting": "[2]; DHA 8 mg/L", "value": "19700 ± 2500", "unit": "ng/mL"}, {"measurement": "CC50 at 24 h", "setting": "[2]; DHA 16 mg/L", "value": "21200 ± 2300", "unit": "ng/mL"}, {"measurement": "combination effect", "setting": "S. aureus ATCC29213; MIC, +8 mg/L DHA", "value": "(Syn) (Synergy (Syn) was defined as an FICI≤0.5)"}, {"measurement": "MIC", "setting": "S. aureus ATCC29213; ATCC29213, +8 mg/L DHA", "value": 3.9, "unit": "ng/mL"}, {"measurement": "MIC", "setting": "S. aureus ATCC29213; ATCC29213, agent alone", "value": 250, "unit": "ng/mL"}, {"measurement": "MIC", "setting": "[3]", "value": 250, "unit": "ng/mL"}]}]}
